Source: a melting point compilation (Tetko et al.; mined from patent text by program, amines drawn as free bases though some values may be those of a salt)

| melting point | SMILES |
| --- | --- |
| 68 to 69 °C | COc1cccc(NC(=O)[C@H](CC(=O)OC(C)(C)C)NC(=O)OCc2ccccc2)c1 |
| 141 to 142 °C | Cc1cccc(C)c1N(CCCC(=O)NCCCC(=O)O)C(=O)c1ccc(Cl)cc1 |
| 90 °C | CCCOc1cccc(C(NC2CCN(C)CC2)c2nc3ccccc3s2)c1 (stereo not drawn) |
| 64 to 71 °C | CC(C)(C)NC(=O)C1CC(Cl)CN1C(=O)C(O)C(Cc1ccccc1)NC(=O)C(CC(N)=O)NC(=O)C(COC1CCCO1)NC(=O)OCc1ccccc1 (stereo not drawn) |
| 375 °C | O=C(O)c1ccc2c(c1)C=Cc1ccc(C(=O)O)cc1S2(=O)=O |
| 220 °C | OC(Cn1cnnc1)(Cn1cncn1)Cn1cncn1 |
| 72 to 78 °C | Cc1nnnn1C(C=CC=O)=C(c1ccc(F)cc1)c1ccc(F)cc1 |
| 56 to 57 °C | CC1=C(C)C(=O)C(CCCCC#CCCCC#CCOC(N)=O)=C(C)C1=O |
| 145 to 146 °C | CC(=O)NC(Cc1c[nH]c2ccccc12)C(=O)OCc1cc(C)cc(C)c1 (stereo not drawn) |
| 293 to 294 °C | CCOCCn1cc2c(C3C(=O)Nc4ccc(Cl)cc43)nc(NCCN3CCOCC3)nc2n1 (stereo not drawn) |
| 258 °C | Cc1ccc(-n2ncc(C(=O)Nc3ccc(N4CCN(C5CCOCC5)CC4)c(C#N)c3)c2C)cc1 |
| 177 to 178 °C | CC(C)[C@H](NC(=O)CN1CCN(CC(=O)O)C1=O)C(=O)N1CCC[C@H]1C(=O)N[C@H](C(=O)C(F)(F)F)C(C)C |
| 114 °C | CCCN(c1nc(-c2ccc(Cl)cc2Cl)c(C=O)s1)C(C)c1ccncc1 (stereo not drawn) |
| 91 to 93 °C | Cc1cccc2c1nc(COc1ccc(Cl)cc1)n2CCC(Cc1ccccc1)C(=O)NCCCN1CCCCC1 (stereo not drawn) |
| 144 to 146 °C | Cc1cc(Cl)ccc1Oc1ccc([N+](=O)[O-])cc1C#N |
| 104 to 106 °C | CCCCc1ccc(C#CC(C)N(O)C(N)=O)s1 (stereo not drawn) |
| 120 to 122 °C | O=C(O)CCC(=O)OCc1ccc(-c2nn(Cc3ccccc3)c3cc(F)ccc23)o1 |

| melting point | SMILES |
| --- | --- |
| 186 to 187 °C | CN(Cc1ccc(NC(=O)C2=Cc3cc(-c4ccncc4)ccc3OCC2)cc1)C1CCOCC1 |
| 186 to 188 °C | COC(=O)c1ccc(NC(=O)c2cc(C(C)C)c(C(C)C)o2)cn1 |
| 155 to 160 °C | COc1cc(Nc2c(C#N)cnc3cc(-c4ccc(CN(CCO)CCO)o4)ccc23)c(Cl)cc1Cl |
| 215 to 217 °C | Cc1cc2c3c(ccc2cc1C#N)OC(=O)C3(C)C |
| 177 to 178 °C | COc1ccc2c(c1OC)C(=O)O[C@@H]2[C@H]1c2c(c(N=[N+]=[N-])c3c(c2OC)OCO3)CCN1C |
| 151 to 154 °C | COc1ccc(C2CNC(=O)N2C(C)c2ccccc2)cc1OC1CC2CCC1C2 (stereo not drawn) |
| 171 °C | O=C1CC=C(c2ccccc2Cl)c2cc(Cl)ccc2N1 |
| 60.5 to 61.5 °C | O=C(CSCCNC(=O)c1ccco1)NCCCOc1cccc(CN2CCCCC2)c1 |
| 196 to 197 °C | CC(C)n1cc(-c2c(-c3ccccc3)nn3ccncc23)ccc1=O |
| 125 to 127 °C | COCCc1nc2c(N)nc3cc(OCc4cccc([N+](=O)[O-])c4)ccc3c2n1CC(C)(C)O |
| 155 to 160 °C | CC(Nc1cc(Cl)nc(SCC(=O)O)n1)c1ccc(Cl)cc1 (stereo not drawn) |
| 118 to 119 °C | CC(=O)NC(Cc1ccc(Cl)c(Cl)c1)C(=O)OCc1cc(C)cc(C)c1 (stereo not drawn) |
| 160 °C | CCCCN1C(=O)NC(Cc2ccc(C=O)cc2)C1=O (stereo not drawn) |
| 155 to 160 °C | COC(C)(C)C(=NO)n1ccnc1 |
| 192 °C | CN(C(=O)OCc1ccccc1)c1ccc([N+](=O)[O-])cc1O |
| 72 to 73 °C | CCCCCCCCCCCCCCCCCCNC(=O)OCC(CNS(=O)(=O)CCCCl)COC (stereo not drawn) |
| 158 to 159 °C | CCCCn1cc(C2CCN(CCOc3ccccc3C(=O)O)CC2)c2ccncc21 |

Continued, molecule first:

| SMILES | melting point |
| --- | --- |
| O=c1ccc2ccc(CC3CO3)cc2o1 (stereo not drawn) | 110 to 112 °C |
| CSCCSc1nc(C(C)(C)C)n[nH]1 | 114 to 116 °C |
| COc1cc(OC)cc(-c2ncoc2-c2ccc(OC(F)(F)F)c(N)c2)c1 | 119 to 120 °C |
| Cc1[nH]cnc1CSCCNC1=C([N+](=O)[O-])CN(Cc2ccccc2)CN1 | 177 to 180 °C |
| C[C@H](NS(=O)(=O)c1ccc(-c2c(C#N)c3cc(F)c(OC(F)F)cc3n2C2CCC2)nc1)C(F)(F)F | 172 to 175 °C |
| COC(=O)C1N=C(c2ccccc2)c2cc(Cl)ccc2NC1=O (stereo not drawn) | 222 °C |
| COc1cc2c(cc1OC)-c1c(C#N)sc(=NC(=O)c3ccccc3)n1CC2 | 274 to 276 °C |
| CCOC(=O)c1c(C)ncn1-c1ccc(Cl)c(Cl)c1 | 135 to 136 °C |
| CCNC(=O)c1ccc(N2CCN(Cc3cc4c(c(OCC)c3)OC(C)C(=O)N4)CC2)c(Cl)c1 (stereo not drawn) | 187 to 199 °C |
| COC(=O)C(C)(C)OCC#Cc1cc(Cl)ccc1NS(=O)(=O)c1ccc(C(C)C)cc1 | 65 to 67 °C |
| CCCCC(Cc1ccc(OCCNC(=O)c2ccc(-c3ccc(CO)cc3)cc2)cc1)C(=O)O (stereo not drawn) | 111 to 113 °C |
| COc1cc(OC)nc(Oc2ccccc2C=NO)n1 | 125 to 128 °C |
| Cc1c(C(=O)c2ccc(Cl)c(S(N)(=O)=O)c2)c2ccccc2n1C | 247 to 249 °C |
| COC(=O)[C@H](Cc1ccc(NC(=O)c2c(Cl)cccc2Cl)cc1)NC(=O)C1(CCNC(C)=O)CCCC1 | 190 to 194 °C |
| CCCc1c(C#N)ccc(NC(=NC#N)Nc2ccccc2Cl)c1O | 159 to 160 °C |
| CN[C@@H]1COc2cc(Cl)cc(-c3ccc(Cl)cc3C)c2O1 | 110 °C |
| C=CCNCC(COc1cccc2c1CC(=O)N2)OC(=O)C12CC3CC(CC(C3)C1)C2 (stereo not drawn) | 170 to 172 °C |

| SMILES | melting point |
| --- | --- |
| CC(=O)Nc1c([N+](=O)[O-])c(Br)nn1-c1c(Cl)cc(C(F)(F)F)cc1Cl | 179 to 180 °C |
| CN1C(=O)C(C(=O)Nc2ccc(Oc3ccc(C(F)(F)F)cn3)cc2)C(=O)N(C)C1=S | 156 to 158 °C |
| O=C(c1ccccc1)c1ccc(O)c(Cl)c1 | 180 °C |
| O=C1CC(NC(=O)c2ccc3nc[nH]c3c2)CCCN1 (stereo not drawn) | 297 to 299 °C |
| Cc1ccc(-c2nnc3cc(-c4ccccc4)c(OCc4ncn(C)n4)nn23)cc1 | 219 to 220 °C |
| Oc1ccc2c(-c3noc4cc(O)ccc34)cccc2c1 | 268 to 288 °C |
| CC(=O)N1CCC(=O)C(C(c2ccc(C)cc2)c2ccc(C)cc2)C1 (stereo not drawn) | 142 to 144 °C |
| CSc1nc(Cl)c(C#N)c(N2CCc3ccccc3CC2)n1 | 144 to 150 °C |
| CC1(C)CC(N(C=O)CCCCCCN(C=O)C2CC(C)(C)NC(C)(C)C2)CC(C)(C)N1 | 155 °C |
| O=C(Nc1ccc(CC2CCN(S(=O)(=O)c3ccccc3)CC2)cc1)C(F)(F)F | 194 to 195 °C |
| COC(=O)[C@H]1O[C@H]1C(=O)N(CC(=O)OC(C)(C)C)c1ccc(OC)cc1 | 89 °C |
| Cc1ccccc1OCC(O)CNC(C)COc1cccnc1C(N)=O (stereo not drawn) | 145 to 161 °C |
| CC1(C)COc2ccc(OS(C)(=O)=O)cc21 | 75 to 77 °C |
| NS(=O)(=O)c1ccccc1-c1ccc(Cn2c(-c3ccccc3)nc(Cl)c2C=O)cc1 | 215 °C |
| CC(C)c1ccc2nc3c(C(=O)O)cccn3c(=O)c2c1 | 206 to 210 °C |
| O=C(O)c1ccc(OCCCc2ccc(OCc3ccccc3)cc2)cc1 | 128 to 130 °C |
| O=C1c2cc(Cl)ccc2COc2ccccc21 | 82 to 83 °C |
